Assays:
[1] = target: JAK1 (Homo sapiens (Human), UniProt P23458); assay: Jak biochemical HTRF assay, JAK1; details: recombinant purified GST-tagged catalytic domain; HTRF format; [ATP] 31.8 μM
Source text: (§1) Jak Biochemical HTRF Assay Protocol
(§2) Subsequent reagent additions employed an Agilent Bravo.

[2] = target: JAK2 (Homo sapiens (Human), UniProt O60674); assay: Jak biochemical HTRF assay, JAK2; details: recombinant purified GST-tagged catalytic domain, HTRF format
Source text: as §1, §2

Sequence of JAK1 (P23458 875-1153): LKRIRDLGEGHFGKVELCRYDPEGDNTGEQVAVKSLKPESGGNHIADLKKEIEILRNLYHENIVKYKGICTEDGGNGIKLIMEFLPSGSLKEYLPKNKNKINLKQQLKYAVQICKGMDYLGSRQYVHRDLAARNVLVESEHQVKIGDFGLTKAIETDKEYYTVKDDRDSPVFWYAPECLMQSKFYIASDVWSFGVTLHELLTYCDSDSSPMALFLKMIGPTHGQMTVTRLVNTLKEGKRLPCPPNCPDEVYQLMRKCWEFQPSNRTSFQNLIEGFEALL
Sequence of JAK2 (O60674 849-1124): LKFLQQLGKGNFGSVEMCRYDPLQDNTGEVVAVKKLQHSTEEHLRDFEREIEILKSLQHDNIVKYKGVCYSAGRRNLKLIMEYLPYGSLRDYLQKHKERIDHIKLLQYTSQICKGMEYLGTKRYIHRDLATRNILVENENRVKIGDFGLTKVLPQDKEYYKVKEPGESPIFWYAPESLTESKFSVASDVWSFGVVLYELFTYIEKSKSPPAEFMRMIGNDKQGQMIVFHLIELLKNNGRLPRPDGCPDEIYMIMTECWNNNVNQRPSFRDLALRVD

Row | Compound | IC50 [1] [nM] | IC50 ([2]; [ATP] 8.5 μM) [nM] | IC50 ([2]; [ATP] […]) [nM]
1 | CC(C)(C)OC(=O)N1CC[C@H](n2cc(C(N)=O)c(Nc3ccccc3)n2)[C@H](C#N)C1 (mixture of isomers) [Example 1-1, tert-butyl(3R,4S and 3S,4R)-4-[4-(aminocarbonyl)-3-anilino-1H-pyrazol-1-yl]-3-cyanopiperidine-1-carboxylate] | 108 | – | 1270
2 | CCn1ccnc1CN1CC[C@@H](n2cc(C(N)=O)c(Nc3ccc(F)cc3)n2)[C@H](C#N)C1 (racemic) [Example 6-38, 1-{(3R,4R and 3S,4S)-3-cyano-1-[(1-ethyl-1H-imidazol-2-yl)methyl]piperidin-4-yl}-3-[(4-fluorophenyl)amino]-1H-pyrdzole-4-carboxamide] | 7 | 82 | –
3 | N#C[C@@H]1CNCCC1n1cc(C(N)=O)c(Nc2ccc(F)cc2)n1 (mixture of isomers) [Example 3-3, 1-[(3R,4R and 3S,4S)-3-cyanopiperidin-4-yl]-3-[(4-fluorophenyl)amino]-1H-pyrazole-4-carboxamide] | 102 | 628 | –
4 | N#C[C@@H]1CN(C(=O)OC2COC2)CC[C@@H]1n1cc(C(N)=O)c(Nc2ccc(F)cc2)n1 (racemic) [Example 5-57, oxetan-3-yl (3R,4S and 3S,4R)-4-{4-carbamoyl-3-[(4-fluorophenyl)amino]-1H-pyrazol-1-yl}-3-cyanopiperidine-1-carboxylate] | 295 | 1110 | –
5 | N#C[C@@H]1CN(C(=O)OC(CF)CF)CC[C@@H]1n1cc(C(N)=O)c(Nc2ccc(F)cc2)n1 (racemic) [Example 5-47, 2-fluoro-1-(fluoromethyl)ethyl (3R,4S and 3S,4R)-4-{4-carbamoyl-3-[(4-fluorophenyl)amino]-1H-pyrazol-1-yl}-3-cyanopiperidine-1-carboxylate] | 121 | 1340 | –
6 | N#C[C@@H]1CN(C(=O)OC2COC2)CC[C@H]1n1cc(C(N)=O)c(Nc2ccc(F)cc2)n1 (racemic) [Example 5-5, oxetan-3-yl (3R,4R and 3S,4S)-4-{4-carbamoyl-3-[(4-fluorophenyl)amino]-1H-pyrazol-1-yl}-3-cyanopiperidine-1-carboxylate] | 12 | 185 | –
7 | CN(C)CCOC(=O)N1CC[C@@H](C#N)C(n2cc(C(N)=O)c(Nc3ccc(F)cc3)n2)C1 (mixture of isomers) [Example 5-86, 2-(dimethylamino)ethyl (3S,4R and 3R,4S)-3-{4-carbamoyl-3-[(4-fluorophenyl)amino]-1H-pyrazol-1-yl}-4-cyanopiperidine-1-carboxylate] | 9 | 352 | –
8 | N#C[C@@H]1CCN(Cc2cccnn2)CC1n1cc(C(N)=O)c(Nc2ccc(F)cc2)n1 (mixture of isomers) [Example 6-1, 1-[(3S,4R and 3R,4S)-4-Cyano-1-(pyridazin-3-ylmethyl)piperidin-3-yl]-3-[(4-fluorophenyl)amino]-1H-pyrazole-4-carboxamide] | 6 | 77 | –
9 | N#C[C@@H]1CNCC[C@H]1n1cc(C(N)=O)c(Nc2ccc(F)cc2)n1 (racemic) [Example 3-2, 1-[(3R,4R and 3S,4S)-3-cyanopiperidin-4-yl]-3-[(4-fluorophenyl)amino]-1H-pyrazole-4-carboxamide] | 7 | 81 | –
10 | N#C[C@@H]1CN(C(=O)OCC2(N)CC2)CC[C@H]1n1cc(C(N)=O)c(Nc2ccc(F)cc2)n1 (racemic) [Example 5-8, (1-aminocyclopropyl)methyl (3R,4R and 3S,4S)-4-{4-carbamoyl-3-[(4-fluorophenyl)amino]-lH-pyrazol-1-yl}-3-cyanopiperidine-1-carboxylate] | 13 | 703 | –
11 | CN(C)CC(C)(C)COC(=O)N1CC[C@@H](n2cc(C(N)=O)c(Nc3ccc(F)cc3)n2)[C@H](C#N)C1 (racemic) [Example 5-21, 3-(dimethylamino)-2,2-dimethylpropyl (3R,4R and 3S,4S)-4-{4-carbamoyl-3-[(4-fluorophenyl)amino]-1H-pyrazol-1-yl}-3-cyanopiperidine-1-carboxylate] | 88 | > 1500 | –

Second part, the compound after the results:

Row | IC50 [1] [nM] | IC50 ([2]; [ATP] 8.5 μM) [nM] | IC50 ([2]; [ATP] […]) [nM] | Compound
12 | 2 | 18 | – | N#C[C@@H]1CCN(Cc2cocn2)C[C@H]1n1cc(C(N)=O)c(Nc2ccc(F)cc2)n1 (racemic) [Example 6-4, 1-[(3S,4R and 3R,4S)-4-cyano-1-(1,3-oxazol-4-ylmethyl)piperidin-3-yl]-3-[(4-fluorophenyl)amino]-1H-pyrazole-4-carboxamide]
13 | 0.7 | 15 | – | N#CCC1(COC(=O)N2CC[C@@H](C#N)C(n3cc(C(N)=O)c(Nc4ccc(F)cc4)n3)C2)CC1 (mixture of isomers) [Example 5-88, [1-(cyanomethyl)cyclopropyl]methyl (3S,4R and 3R,4S)-3-{4-carbamoyl-3-[(4-fluorophenyl)amino]-1H-pyrazol-1-yl}-4-cyanopiperidine-1-carboxylate]
14 | 0.5 | – | 6 | C[C@]1(C#N)CS(=O)(=O)CC1n1cc(C(N)=O)c(Nc2ccc(F)cc2)n1 (stereo partly drawn) [Example 13-5, 1-((3S,4R or 3R4S)-4-cyano-4-methyl-1,1-dioxidotetrahydrothiophen-3-yl)-3-((4-fluorophenyl)amino)-1H-pyrazole-4-carboxamide]
15 | 2 | 26 | – | N#C[C@@H]1CCN(Cc2cnccn2)C[C@H]1n1cc(C(N)=O)c(Nc2ccc(F)cc2)n1 (racemic) [Example 6-2, 1-[(3S,4R and 3R,4S)-4-cyano-1-(pyrazin-2-ylmethyl)piperidin-3-yl]-3-[(4-fluorophenyl)amino]-1H-pyrazole-4-carboxamide]
16 | 0.6 | – | 8 | Cc1ncoc1CN1CC[C@@H](C#N)[C@H](n2cc(C(N)=O)c(Nc3ccc(F)cc3)n2)C1 [Example 7-2, 1-{(3S,4R, 3R,4S)-4-cyano-1-[(4-methyl-1,3-oxazol-5-yl)methyl]piperidin-3-yl}-3-[(4-fluorophenyl)amino]-1H-pyrazole-4-carboxamide]
17 | 6 | 39 | – | CC(C)(C)OC(=O)N1CC[C@H](C#N)C(n2cc(C(N)=O)c(Nc3ccc(F)cc3)n2)C1 (mixture of isomers) [Example 2-1, tert-Butyl(3R,4S and 3S,4R)-3-{4-carbamoyl-3-[(4-fluorophenyl)amino]-1H-pyrazol-1-yl}-4-cyanopiperidine-1-carboxylate]
18 | 2 | – | 18 | C[C@@]1(C#N)CS(=O)(=O)C[C@@H]1n1cc(C(N)=O)c(Nc2ccc(F)cc2)n1 (single isomer, unassigned) [Example 14-1, 1-((3R,4R or 3S,4S)-4-Cyano-4-methyl-1,1-dioxidotetrahydrothiophen-3-yl)-3-((4-fluorophenyl)amino)-1H-pyrazole-4-carboxamide]
19 | 6 | 63 | – | N#C[C@@H]1CCN(CC2CCOC2)C[C@H]1n1cc(C(N)=O)c(Nc2ccc(F)cc2)n1 (mixture of isomers) [Example 6-21, 1-[(3S,4R and 3R,4S)-4-cyano-1-(tetrahydrofuran-3-ylmethyl)piperidin-3-yl]-3-[(4-fluorophenyl)amino]-1H-pyrdzole-4-carboxamide]
20 | 5 | 41 | – | CC(C)(C)OC(=O)N1CC[C@H](C#N)C(n2cc(C(N)=O)c(Nc3ccccc3)n2)C1 (mixture of isomers) [Example 1-3, tert-butyl(3R,4S and 3S,4R)-3-[4-(aminocarbonyl)-3-anilino-1H-pyrazol-1-yl]-4-cyanopiperidine-1-carboxylate]
21 | 6 | 187 | – | CCOC(=O)COC(=O)N1CC[C@@H](C#N)C(n2cc(C(N)=O)c(Nc3ccc(F)cc3)n2)C1 (mixture of isomers) [Example 5-84, 2-ethoxy-2-oxoethyl (3S,4R and 3R,4S)-3-{4-carbamoyl-3-[(4-fluorophenyl)amino]-1H-pyrazol-1-yl}-4-cyanopiperidine-1-carboxylate]
22 | 4 | 76 | – | CC(C)COC(=O)N1CC[C@@H](C#N)C(n2cc(C(N)=O)c(Nc3ccc(F)cc3)n2)C1 (mixture of isomers) [Example 5-77, 2-methylpropyl (3S,4R and 3R,4S)-3-{4-carbamoyl-3-[(4-fluorophenyl)amino]-1H-pyrazol-1-yl}-4-cyanopiperidine-1-carboxylate]
23 | 2 | 19 | – | N#C[C@@H]1CCN(Cc2cscn2)C[C@H]1n1cc(C(N)=O)c(Nc2ccc(F)cc2)n1 (racemic) [Example 6-6, 1-[(3S,4R and 3R,4S)-4-cyano-1-(1,3-thiazol-4-ylmethyl)piperidin-3-yl]-3-[(4-fluorophenyl)amino]-1H-pyrazole-4-carboxamide]
24 | 0.7 | 14 | – | N#C[C@@H]1CCN(Cc2ccc(F)cn2)C[C@H]1n1cc(C(N)=O)c(Nc2ccc(F)cc2)n1 (racemic) [Example 6-16, 1-{(3S,4R and 3R,4S)-4-cyano-1-[(5-fluoropyridin-2-yl)methyl]piperidin-3-yl}-3-[(4-fluorophenyl)amino]-1H-pyrazole-4-carboxamide]
25 | 4 | 104 | – | N#C[C@@H]1CN(C(=O)OCCF)CC[C@H]1n1cc(C(N)=O)c(Nc2ccc(F)cc2)n1 (racemic) [Example 5-2, 2-fluoroethyl (3R,4R and 3S,4S)-4-{4-carbamoyl-3-[(4-fluorophenyl)amino]-1H-pyrazol-1-yl}-3-cyanopiperidine-1-carboxylate]
26 | 5 | 69 | – | CC1(COC(=O)N2CC[C@@H](C#N)C(n3cc(C(N)=O)c(Nc4ccc(F)cc4)n3)C2)CC1 (mixture of isomers) [Example 5-72, (1-methylcyclopropyl)methyl (3S,4R and 3R,4S)-3-{4-carbamoyl-3-[(4-fluorophenyl)amino]-1H-pyrazol-1-yl}-4-cyanopiperidine-1-carboxylate]
27 | 0.8 | 5 | – | N#C[C@H]1CCOC[C@@H]1n1cc(C(N)=O)c(Nc2ccc(F)nc2)n1 (single isomer, unassigned) [Example 9-29, 1-[(3R,4S or 3S,4R)-4-cyanotetrahydro-2H-pyran-3-yl]-3-[(6-fluoropyridin-3-yl)amino]-1H-pyrazole-4-carboxamide]

From US9394282B2, “Pyrazole carboxamides as Janus kinase inhibitors” (Merck Sharp & Dohme Corp., priority 2011, dated 2016)
